Reference: US9296758B2, “2-quinolinyl-acetic acid derivatives as HIV antiviral compounds” (GILEAD SCIENCES, INC., priority 2010, dated 2016)

test system: HIV-IIIb; assay: Test A: Antiviral Assays in MT4 Cells; format: cell-based; conditions: Human immunodeficiency virus 1, IIIB, MT4, 120 h, MT-4 cells infected with HIV-IIIb (0.004 m.o.i.), 5 days of incubation, CellTiter-Glo chemiluminescence readout
Description: Test A: Antiviral Assays in MT4 Cells For the antiviral assay utilizing MT-4 cells, 0.4 μL of 189X test concentration of 3-fold serially diluted compound in DMSO was added to 40 μL of cell growth medium (RPMI 1640, 10% FBS, 1% penicillin/Streptomycin, 1% L-Glutamine, 1% HEPES) in each well of 384-well assay plates (10 concentrations) in quadruplicate. 1 mL aliquots of 2×10e6 MT-4 cells are pre-infected for 1 and 3 hrs respectively, @ 37° C. with 25 μL (MT4) or of either cell growth medium (mock-infected) or a fresh 1:250 dilution of an HIV-IIIb concentrated ABI stock (0.004 m.o.i. for MT4 cells). Infected and uninfected cells are diluted in cell growth medium and 35 uL of 2000 (for MT4) cells is added to each well of the assay plates. Assay plates were then incubated in a 37° C. incubator. After 5 days of incubation, 25 μl of 2× concentrated CellTiter-Glo™ Reagent (catalog #G7573, Promega Biosciences, Inc., Madison, Wis.) was added to each well of the assay plate. Cell lysis was carried out by incubating at room temperature for 2-3 min and then chemiluminescence was read using the Envision reader (PerkinElmer).

Structure (SMILES)	EC50 [nM]
Cc1cc2nc(-c3cncn3C)ccc2c(-c2ccc3c4c(ccnc24)CCO3)c1[C@H](OC(C)(C)C)C(=O)O (atropisomer, axis not shown) [Compound 83, (S)-2-tert-Butoxy-2-((R)-5-(2,3-dihydropyrano[4,3,2-de]quinolin-7-yl)-7-methyl-2-(1-methyl-1H-imidazol-5-yl)quinolin-6-yl)acetic acid]	42
Cc1cc2nc(-c3nccn3C)ccc2c(-c2ccc3c4c(ccnc24)CCO3)c1[C@H](OC(C)(C)C)C(=O)O (atropisomer, axis not shown) [Compound 84, (S)-2-tert-Butoxy-2-((R)-5-(2,3-dihydropyrano[4,3,2-de]quinolin-7-yl)-7-methyl-2-(1-methyl-1H-imidazol-2-yl)quinolin-6-yl)acetic acid]	330
Cc1cc2nc(-c3cn(C)cn3)ccc2c(-c2ccc3c4c(ccnc24)CCO3)c1[C@H](OC(C)(C)C)C(=O)O (atropisomer, axis not shown) [Compound 85, (S)-2-tert-butoxy-2-((R)-5-(2,3-dihydropyrano[4,3,2-de]quinolin-7-yl)-7-methyl-2-(1-methyl-1H-imidazol-4-yl)quinolin-6-yl)acetic acid]	131
Cc1cc2nc(N3CCC3)ccc2c(-c2ccc3c4c(ccnc24)CCO3)c1[C@H](OC(C)(C)C)C(=O)O (atropisomer, axis not shown) [Compound 95, (S)-2-((R)-2-(azetidin-1-yl)-5-(2,3-dihydropyrano[4,3,2-de]quinolin-7-yl)-7-methylquinolin-6-yl)-2-tert-butoxyacetic acid]	54
Cc1ccc2c(-c3ccc(Cl)cc3)c([C@H](OC(C)(C)C)C(=O)O)c(Cl)cc2n1 [Compound 1L, (S)-2-tert-butoxy-2-(7-chloro-5-(4-chlorophenyl)-2-methylquinolin-6-yl)acetic acid]	170
Cc1ccc2c(-c3ccc(Cl)cc3)c([C@H](OC(C)(C)C)C(=O)O)c(C)cc2n1 [Compound 2K, (S)-2-tert-butoxy-2-(5-(4-chlorophenyl)-2,7-dimethylquinolin-6-yl)acetic acid]	55
Cc1cc2ncccc2c(-c2ccc(Cl)cc2)c1[C@H](OC(C)(C)C)C(=O)O [Compound 3L, (S)-2-tert-butoxy-2-(5-(4-chlorophenyl)-7-methylquinolin-6-yl)acetic acid]	1060
Cc1cc2cccnc2c(-c2ccc(Cl)cc2)c1[C@H](OC(C)(C)C)C(=O)O [Compound 4J, (S)-2-tert-butoxy-2-(8-(4-chlorophenyl)-6-methylquinolin-7-yl)acetic acid]	543
Cc1cc2nc(C(F)(F)F)ccc2c(-c2ccc(Cl)cc2)c1[C@H](OC(C)(C)C)C(=O)O [Compound 7J, (S)-2-tert-butoxy-2-(5-(4-chlorophenyl)-7-methyl-2-(trifluoromethyl)quinolin-6-yl)acetic acid]	160
Cc1cc2[nH]c(=O)ccc2c(-c2ccc(Cl)cc2)c1[C@H](OC(C)(C)C)C(=O)O [Compound 8L, (S)-2-tert-butoxy-2-(5-(4-chlorophenyl)-7-methyl-2-oxo-1,2-dihydroquinolin-6-yl)acetic acid]	559
Cc1cc2nc(CN(C)C)ccc2c(-c2ccc(Cl)cc2)c1[C@H](OC(C)(C)C)C(=O)O [Compound 9, (S)-2-tert-butoxy-2-(5-(4-chlorophenyl)-2-((dimethylamino)methyl)-7-methylquinolin-6-yl)acetic acid]	173
CNCc1ccc2c(-c3ccc(Cl)cc3)c([C@H](OC(C)(C)C)C(=O)O)c(C)cc2n1 [Compound 10, (S)-2-tert-Butoxy-2-(5-(4-chlorophenyl)-7-methyl-2-((methylamino)methyl)quinolin-6-yl)acetic acid]	897
Cc1cc2nc(CN3CCCCC3)ccc2c(-c2ccc(Cl)cc2)c1[C@H](OC(C)(C)C)C(=O)O [Compound 11, (S)-2-tert-Butoxy-2-(5-(4-chlorophenyl)-7-methyl-2-(piperidin-1-ylmethyl)quinolin-6-yl)acetic acid]	479
COC(=O)c1ccc2c(-c3ccc(Cl)cc3)c([C@H](OC(C)(C)C)C(=O)O)c(C)cc2n1 [Compound 12, (S)-2-tert-Butoxy-2-(5-(4-chlorophenyl)-2-(methoxycarbonyl)-7-methylquinolin-6-yl)acetic acid]	210
CCOC(=O)c1ccc2c(-c3ccc(Cl)cc3)c([C@H](OC(C)(C)C)C(=O)O)c(C)cc2n1 [Compound 13, (S)-2-tert-Butoxy-2-(5-(4-chlorophenyl)-2-(ethoxycarbonyl)-7-methylquinolin-6-yl)acetic acid]	150
Cc1cc2nc(CN(C)c3ccccc3)ccc2c(-c2ccc(Cl)cc2)c1[C@H](OC(C)(C)C)C(=O)O [Compound 14, (S)-2-tert-Butoxy-2-(5-(4-chlorophenyl)-7-methyl-2-((methyl(phenyl)amino)methyl)quinolin-6-yl)acetic acid]	983
CCOCc1ccc2c(-c3ccc(Cl)cc3)c([C@H](OC(C)(C)C)C(=O)O)c(C)cc2n1 [Compound 15, (S)-2-tert-butoxy-2-(5-(4-chlorophenyl)-2-(ethoxymethyl)-7-methylquinolin-6-yl)acetic acid]	334
Cc1cc2nc(C(=O)N(C)C)ccc2c(-c2ccc(Cl)cc2)c1[C@H](OC(C)(C)C)C(=O)O [Compound 16, (S)-2-tert-Butoxy-2-(5-(4-chlorophenyl)-2-(dimethylcarbamoyl)-7-methylquinolin-6-yl)acetic acid]	220
Cc1cc2nc(C(=O)N(C)c3ccccc3)ccc2c(-c2ccc(Cl)cc2)c1[C@H](OC(C)(C)C)C(=O)O [Compound 17, (S)-2-tert-butoxy-2-(5-(4-chlorophenyl)-7-methyl-2-(methyl(phenyl)carbamoyl)quinolin-6-yl)acetic acid]	359
Cc1ccc2c(-c3ccc(-c4ccccc4)cc3)c(C(OC(C)(C)C)C(=O)O)c(C)cc2n1 (centres unmarked) [Compound 19, 2-(5-(Biphenyl-4-yl)-2,7-dimethylquinolin-6-yl)-2-tert-butoxyacetic acid]	53000
Cc1cc2nc(CO)ccc2c(-c2ccc3c4c(ccnc24)CCO3)c1[C@H](OC(C)(C)C)C(=O)O [Compound 21, (S)-2-tert-Butoxy-2-((R)-5-(2,3-dihydropyrano[4,3,2-de]quinolin-7-yl)-2-(hydroxymethyl)-7-methylquinolin-6-yl)acetic acid]	231
Cc1cc2c(ccc(C)[n+]2[O-])c(-c2ccc3c4c(ccnc24)CCO3)c1[C@H](OC(C)(C)C)C(=O)O [Compound 22, (R)-6-((S)-tert-butoxy(carboxy)methyl)-5-(2,3-dihydropyrano[4,3,2-de]quinolin-7-yl)-2,7-dimethylquinoline 1-oxide]	1080
Cc1cc2nc(C(=O)O)ccc2c(-c2ccc(Cl)cc2)c1[C@H](OC(C)(C)C)C(=O)O [Compound 24, (S)-6-(tert-Butoxy(carboxy)methyl)-5-(4-chlorophenyl)-7-methylquinoline-2-carboxylic acid]	29800
Cc1cc2nc(CN(C)C)ccc2c(C2=CCCCC2)c1[C@H](OC(C)(C)C)C(=O)O [Compound 25, (S)-2-tert-butoxy-2-(5-cyclohexenyl-2-((dimethylamino)methyl)-7-methylquinolin-6-yl)acetic acid]	346
CCc1ccc2c(-c3ccc(Cl)cc3)c([C@H](OC(C)(C)C)C(=O)O)c(C)cc2n1 [Compound 26, (S)-2-tert-butoxy-2-(5-(4-chlorophenyl)-2-ethyl-7-methylquinolin-6-yl)acetic acid]	45

same assay, conditions: MT-4 cells infected with HIV-IIIb (0.004 m.o.i.), 5 days of incubation, CellTiter-Glo chemiluminescence readout

Structure (SMILES)	EC50 [nM]
Cc1ccc2c(-c3ccc4c(c3Cl)NCCO4)c([C@H](OC(C)(C)C)C(=O)O)c(C)cc2n1 (atropisomer, axis not shown) [Compound 105]	105
Cc1ccc2c(-c3ccc4c5c(cccc35)CCO4)c([C@H](OC(C)(C)C)C(=O)O)c(C)cc2n1 (single isomer, unassigned) [Compound 102A]	13
Cc1ccc2c(-c3ccc4c5c(cccc35)CCO4)c([C@H](OC(C)(C)C)C(=O)O)c(C)cc2n1 (single isomer, unassigned) [Compound 102B]	110
Cc1ccc2c(-c3ccc(Cl)cc3Cl)c([C@H](OC(C)(C)C)C(=O)O)c(C)cc2n1 [Compound 5J, (S)-2-tert-butoxy-2-((S)-5-(2,4-dichlorophenyl)-2,7-dimethylquinolin-6-yl)acetic acid]	19
Cc1ccc2c(-c3ccc4c5c(ccnc35)CCO4)c([C@H](OC(C)(C)C)C(=O)O)c(C)cc2n1 [Compound 6D, (S)-2-tert-butoxy-2-((R)-5-(2,3-dihydropyrano[4,3,2-de]quinolin-7-yl)-2,7-dimethylquinolin-6-yl)acetic acid]	20
Cc1cc2nc(CN(C)C)ccc2c(-c2ccc3c4c(ccnc24)CCO3)c1[C@H](OC(C)(C)C)C(=O)O [Compound 20, (S)-2-tert-butoxy-2-((R)-5-(2,3-dihydropyrano[4,3,2-de]quinolin-7-yl)-2-((dimethylamino)methyl)-7-methylquinolin-6-yl)acetic acid]	1740
Cc1ccc2c(-c3ccc4c5c(ccnc35)CCO4)c([C@H](OC(C)(C)C)C(=O)O)c(C)cc2n1 [Compound 23, (S)-2-tert-Butoxy-2-((S)-5-(2,3-dihydropyrano[4,3,2-de]quinolin-7-yl)-2,7-dimethylquinolin-6-yl)acetic acid]	26200
